From PMC7525093, “Bis-Quinolinium Cyclophane Blockers of SK Potassium Channels Are Antagonists of M3 Muscarinic Acetylcholine Receptors” (Frontiers in Pharmacology, 2020)
Where “and” joins values, the source holds several entries; their conditions need not be identical. Identical values can stand only once.

Tests used:
aorta = test: Isometric aortic ring tension measurement; design: species or system mouse; settings: 3.5 μM; precontracted to 300 nM phenylephrine
Description: Mice used in these studies were BALB/C mice from Jackson Labs. All animal procedures were reviewed and approved by the University of Texas Health Science Center at San Antonio Institutional Animal Care and Use Committee. For tracheal constriction studies, animals were deeply anesthetized with isoflurane and then sacrificed by cervical dislocation. Isometric tracheal contraction measurements were performed as previously described ([Semenov et al., 2012]). Trachea were removed and surrounding tissues dissected in ice-cold physiologic saline solution (PSS) consisting of 119 mM NaCl, 4.7 mM KCl, 2.0 mM CaCl2, 1.0 mM KH2PO4, 1.17 mM MgSO4, 18 mM NaHCO3, 0.026 mM EDTA, 11 mM glucose, and 12.5 mM sucrose. Trachea were cut below the pharynx and above the primary bronchus bifurcation. Two metal wires, attached to a force transducer and micrometer (Radnoti, LLC), were threaded into the lumen of the trachea. Trachea were placed into an oxygenated organ bath (95% O2, 5% CO2), at 37°C, pH 7.35 (after bubbling with 95% O2–5% CO2). Tracheal resting tension was readjusted to 1 gram over 1 h and then challenged with 67 mM potassium PSS with NaCl adjusted to 56.7 mM to maintain proper osmolarity (KPS). Trachea were challenged two or more times until reproducible contractile responses were achieved. All subsequent experimental drug responses were normalized to the KPS response. […]

mouse lung lower airways = test: Bronchial diameter changes in mouse lung slices; settings: 3.5 μM UCL 1684; 0.5 μM carbachol
Description: Experiments using mouse lung slices were conducted as described ([Sanderson, 2011]). Eight-week-old Balb/C mice were sacrificed by deep isoflurane anesthesia followed by cervical dislocation. Trachea were isolated, cannulated with a blunt needle and the lungs filled with 3 ml of Hanks balanced salt solution (HBSS) with 2% low-temperature melt agarose at 37°C followed by 0.5 ml of air to clear the airways of agarose. The mouse thoracic cavity was exposed and the lungs chilled with an ice bath. After gelling of the agarose, the lungs were removed and 200 μm sections made with a Leica Vibratome VT1200. The sections were placed in DMEM in a tissue-culture incubator at 37°C for up to 8 h. Experiments measuring diameter changes were conducted using an inverted 10X phase contrast objective and oblique lighting in a constant perfusion (0.5 ml/min) bath of HBSS at 22°C solution.

[1] = tested on: human primary bronchial smooth muscle cells stably transfected with the human M3 muscarinic receptor; test: Cytosolic calcium imaging in human bronchial smooth muscle cells; assay type: cell-based
Description: TSM cells were placed on a coverslip in a 1 ml perfusion chamber on an inverted microscope and incubated with 20 μM Cal-520 AM dye (AAT Bioquest, Sunnyvale, California, USA) in 0.2% Pluronic F-127 and 1 mM probenecid in HBSS at room temperature for 30 min. The chamber was fitted with a top adaptor and coverslip (Warner Instruments, RC37WC) to establish a closed perfusion chamber. The cells were imaged at 20 second intervals using 488 nm excitation on a Nikon swept-field confocal microscope using slit-scan mode, 2×2 Binning, and 100 millisecond frames.
Due to the loss of functional muscarinic receptors in primary bronchial smooth muscle cells in culture, calcium imaging was performed in human primary bronchial smooth muscle cells (ScienCell, passage 3) stably transfected with the human M3 muscarinic receptor. Human M3 receptor transfected clones were stably selected with G418, and individual clones were expanded to a 10 cm dish and frozen into aliquots, and analyzed after a maximum of two additional passages.

SK3 = target: SK3; design: method as in Benton D.C. et al., 2013; settings: 125I-Apamin competition; ref Benton D.C. et al., 2013; read-out: Ki, SK3 channels; cited from earlier work

SMILES: c1cc2cc(c1)C[n+]1ccc(c3ccccc31)NCc1ccc(cc1)CNc1cc[n+](c3ccccc13)C2 [UCL 1684, 6,12,19,20,25,26-Hexahydro-5,27:13,18:21,24-trietheno-11,7-metheno-7H-dibenzo [b,n] [1,5,12,16]tetraazacyclotricosine-5,13-diium dibromide]
- Relaxation response of aorta (aorta): 7.8 ± 4.3
- Bronchial diameter during second carbachol challenge normalized to first challenge (mouse lung lower airways): 178.3% and 178.3 ± 19.0%
- Calcium response (integral) to second carbachol relative to first ([1]; 3.5 μM UCL 1684, 0.5 μM carbachol, human BSMC): 0.38 ± 0.10
- activity at 3.5 µM ([1]; Homo sapiens, BSMC, read-out: CCH-evoked cytosolic calcium, % of control): 38%
- Ki (SK3): 7.7 nM
